Measured values reported in PubChem BioAssay (NCI).
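The compound was tested at five concentrations on cells cultured in 96-well plates, with a 48-hour exposure period. The concentration for 50% growth inhibition is given as GI50. Definition used: TGI = concentration required for complete inhibition of growth.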

How the values were obtained:
Assay in all cases: NCI anticancer screen, dose series, 48 h
A498 renal = test system: A498 renal
HOP-92 NSCLC = test system: HOP-92 NSCLC
M14 melanoma = test system: M14 melanoma
MDA-MB-435 = test system: MDA-MB-435
NCI-H522 lung = test system: NCI-H522 lung
SF-295 CNS = test system: SF-295 CNS
SK-MEL-2 melanoma = test system: SK-MEL-2 melanoma
SK-MEL-28 melanoma = test system: SK-MEL-28 melanoma
SW-620 colon = test system: SW-620 colon
T-47D breast = test system: T-47D breast

Row | Structure (SMILES) | TGI (A498 renal) [µM] | TGI (HOP-92 NSCLC) [µM] | TGI (M14 melanoma) [µM] | TGI (MDA-MB-435) [µM] | TGI (NCI-H522 lung) [µM] | TGI (SF-295 CNS) [µM] | TGI (SK-MEL-2 melanoma) [µM] | TGI (SK-MEL-28 melanoma) [µM] | TGI (SW-620 colon) [µM] | TGI (T-47D breast) [µM] | GI50 (A498 renal) [nM] | GI50 (HOP-92 NSCLC) [µM] | GI50 (M14 melanoma) [µM] | GI50 (MDA-MB-435) [µM] | GI50 (NCI-H522 lung) [µM] | GI50 (SF-295 CNS) [µM] | GI50 (SK-MEL-2 melanoma) [nM] | GI50 (SK-MEL-28 melanoma) [µM] | GI50 (SW-620 colon) [µM] | GI50 (T-47D breast) [µM]
1 | C/C(=N\NC(=S)N1CCN(c2ccccn2)CC1)c1cccc2cccnc12 | 71.1 | 52.3 | > 47.4 | > 100 | 9.63 | 55.8 | 8.56 | > 100 | > 100 | > 87.6 | – | – | – | – | – | – | – | – | – | –
2 | CC(C)(C)OC(=O)N1Cc2cc3ccccc3nc2C1CO (configuration not stated) | > 100 | > 100 | > 100 | > 100 | > 100 | > 100 | > 100 | > 100 | > 100 | > 100 | > 100000 | 57.8 | > 100 | > 100 | > 100 | > 100 | > 100000 | > 100 | > 100 | > 100
3 | COc1cccc(-c2nn(-c3ccccc3)cc2-c2ccnc(NCCCNS(=O)(=O)c3ccc(C(F)(F)F)cc3)c2)c1 | > 100 | > 100 | > 100 | > 100 | 23 | > 100 | 12.4 | > 100 | > 100 | 9.11 | 3800 | 3.68 | 4.46 | 4.2 | 2.51 | 3.17 | 2840 | 9.1 | 11.2 | 2.54
4 | Cc1nn(-c2ccccc2)c2nc(C)n(-c3ccc(Br)cc3)c(=O)c12 | 0.816 | 68 | > 100 | 0.684 | 18.6 | – | > 100 | > 100 | > 100 | > 70.5 | 219 | 0.579 | 0.429 | 0.226 | 0.326 | 0.357 | 654 | 3.46 | 0.353 | 0.427
5 | CCN(CC)CCCC(C)Nc1ccnc(/C=C/c2ccc(Cl)cc2)c1 (configuration not stated) | 5.2 | 3.12 | 2.74 | 2.95 | 3.81 | 6.3 | 4.25 | 3.41 | 3.91 | 3.59 | 1620 | – | – | – | – | – | – | – | – | –
6 | O=C(Nc1cc2cc([N+](=O)[O-])ccc2oc1=O)c1cccs1 | > 100 | > 100 | > 100 | 70.8 | 84.7 | > 100 | > 100 | > 100 | > 100 | > 100 | – | – | – | – | – | – | – | – | – | –
7 | COC(=O)[C@H](CCCCNC(=O)OCc1ccccc1)NC(=O)[C@@H](NC(=O)Nc1cc(C(F)(F)F)cc(C(F)(F)F)c1)C(C)C | > 10 | > 10 | > 10 | > 10 | > 10 | > 10 | > 10 | > 10 | > 10 | > 10 | > 10000 | > 10 | > 10 | > 10 | > 10 | > 10 | > 10000 | > 10 | > 10 | > 10
8 | CC[Si](CC)(CC)OC1[C@@H](O[Si](CC)(CC)CC)[C@@H](CNC(=O)NC)O[C@H]1n1cnc2c(NC(=O)Nc3ccccc3)ncnc21 (some centres not stated) | 6.38 | 5.26 | > 100 | > 100 | 78.5 | 11.7 | 5.9 | > 100 | > 100 | > 100 | 1610 | 1.58 | 3.75 | 3.17 | 3.83 | 2.89 | 2490 | 4.93 | 4.1 | 4.47
9 | NC(=O)c1ncn2c(=O)n(CCCl)nnc12 | 375 | 408 | 500 | 388 | 384 | 239 | 511 | 562 | 822 | 941 | – | – | – | – | – | > 68 | – | – | 51.2 | –
10 | O=C(CC1Sc2ccccc2NC1=O)NNc1ccc(F)cc1 (configuration not stated) | > 100 | > 100 | > 100 | > 100 | > 100 | > 100 | > 100 | > 100 | > 100 | > 100 | 83500 | > 100 | 5.5 | 4.34 | 9.39 | 12.7 | 72900 | > 100 | 38.5 | 14.6
